How the values were obtained:
L02 [1] = test: Protection against D-GalN-induced toxicity in L02 cells […] assessed as reduction in cell growth relative to control; format: functional, Homo sapiens; set-up: scale not given: the % may be the effect or the level left
L02 [2] = test: Protection against D-GalN-induced toxicity in L02 cells […] assessed as reduction in cell growth at 3.13 microg/ml relative to control; format: functional, Homo sapiens; set-up: scale not given: the % may be the effect or the level left; conditions: dose 3.13 µg/ml
L02 [3] = test: Protection against D-GalN-induced toxicity in L02 cells […] assessed as reduction in cell growth at 6.25 microg/ml relative to control; format: functional, Homo sapiens; set-up: scale not given: the % may be the effect or the level left; conditions: dose 6.25 µg/ml
[4] = Hepatotoxicity in DMF-induced ICR mouse model assessed as change in CAT level, po measured after 7 days; format: toxicity, organism-based; conditions: in vivo, 168 h, time 7 day
[5] = Hepatotoxicity in CCl4-induced ICR mouse model assessed as change in SOD level, po measured after 7 days; format: toxicity, organism-based; conditions: in vivo, 168 h, time 7 day
[6] = Hepatotoxicity in DMF-induced ICR mouse model assessed as change in SOD level, po measured after 7 days; format: toxicity, organism-based; conditions: in vivo, 168 h, time 7 day
[7] = Hepatotoxicity in CCl4-induced ICR mouse model assessed as change in GSH-PX level, po measured after 7 days; format: toxicity, organism-based; conditions: in vivo, 168 h, time 7 day
[8] = Hepatotoxicity in DMF-induced ICR mouse model assessed as change in GSH-PX level, po measured after 7 days; format: toxicity, organism-based; conditions: in vivo, 168 h, time 7 day
[9] = Hepatotoxicity in CCl4-induced ICR mouse model assessed as change in CAT level, po measured after 7 days; format: toxicity, organism-based; conditions: in vivo, 168 h, time 7 day
HepG2 = test: Cytoprotective activity against t-BHP induced cell death in human HepG2 cells assessed as cell survival rate at 10 uM relative to control; format: functional
Hepatocyte [10] = test: Hepatoprotective activity against D-GaIN/TNFalpha -induced cell death in mouse hepatocyte assessed as inhibition at 50 uM relative to control; format: functional; set-up: scale not given: the % may be the effect or the level left
Hepatocyte [11] = test: Hepatoprotective activity against D-GaIN/TNFalpha-induced cell death in mouse hepatocyte at 100 uM relative to control; format: functional, cell-based; conditions: Mus musculus, Hepatocyte
Hepatocyte [12] = test: Hepatoprotective activity against D-GaIN/TNFalpha-induced cell death in mouse hepatocytes at 50 uM assessed as inhibition of cell death relative to control; format: functional; set-up: scale not given: the % may be the effect or the level left
Hepatocyte [13] = test: Hepatoprotective activity against D-GaIN-induced toxicity in mouse hepatocyte relative to control; format: functional, cell-based
[14] = Cytotoxicity against human HepG2 cells assessed as reduction in cell viability by SRB assay; format: toxicity, cell-based
Hepatocyte [15] = test: Hepatoprotective activity against D-GaIN/TNFalpha-induced cell death in mouse hepatocyte at 100 uM; format: functional, cell-based
Mus musculus [16] = species on record: Mus musculus; test: Hepatoprotective activity in CCl4-induced mouse assessed as change in SGPT level (reference value: 6.9 mmol/L); format: functional
Huh-7 = test: Hepatoprotective activity in human Huh-7 cells assessed as reduction in AST level; format: functional; set-up: scale not given: the % may be the effect or the level left
Hepatocyte [17] = test: Hepatoprotective activity against CCl4/GaIN-induced cytotoxicity in rat hepatocytes assessed as decrease in GPT level at 1.0 ug/mL relative to control; format: functional; set-up: scale not given: the % may be the effect or the level left; conditions: dose 1 µg/ml
Mus musculus [18] = species on record: Mus musculus; test: Hepatoprotective activity against D-galactosamine-induced liver injury mouse model assessed as […] leakage at 50 ug/ml; format: functional; conditions: dose 50 µg/ml
[19] = Hepatotoxicity in D-GaIN induced Wistar rat assessed as change in induction of TAT level for 10 days relative to control; format: toxicity; set-up: concentration or dose not given beside the values; conditions: in vivo, 240 h, time 10 day
[20] = Hepatotoxicity in D-GaIN induced Wistar rat assessed as change in GTP leakage level for 10 days relative to control; format: toxicity; conditions: in vivo, 240 h, time 10 day
[21] = Hepatotoxicity in acetaminophen-induced Wistar rat assessed as reduction in liver damage by measuring histological score at 50 to 100 mg/kg (reference value: 4.83); format: toxicity, organism-based; conditions: in vivo, dose 50-100 mg/kg

For `CC(C)(O[C@@H]1O[C@H](CO)[C@@H](O)[C@H](O)[C@H]1O)[C@@H]1CC[C@@H]([C@H]2[C@H](O)C[C@]3(C)[C@@H]2CC[C@@H]2[C@@]4(C)CC[C@H](O[C@@H]5O[C@H](CO)[C@@H](O)[C@H](O)[C@H]5O[C@@H]5O[C@H](CO)[C@@H](O)[C@H](O)[C@H]5O)C(C)(C)[C@@H]4CC[C@]23C)O1`, which Activity (L02 [1]) is on record?
The Activity was 46.7%.

And the Activity (L02 [2])?
Its Activity is 22.8%.

What about the Activity (L02 [3]) of the same molecule?
Its Activity is 22.8%.

For `C[C@@H]1O[C@@H](O[C@H]2[C@H](OC(=O)[C@]34CCC(C)(C)C[C@H]3C3=CC[C@@H]5[C@@]6(C(=O)O)CC[C@H](O)[C@@](C)(C(=O)O)[C@@H]6CC[C@@]5(C)[C@]3(C)CC4)O[C@H](C)[C@H](O)[C@@H]2O)[C@H](O)[C@H](O)[C@H]1O[C@@H]1O[C@H](CO)[C@@H](O[C@@H]2OC[C@@H](O)[C@H](O)[C@H]2O[C@@H]2OC[C@H](O)[C@H](O)[C@H]2O)[C@H](O)[C@H]1O`, which Activity [4] is on record?
Its Activity is 84.68 U/mg.

What about the Activity [5] of the same molecule?
The Activity was 221.03 U/mg.

And the Activity [6]?
Its Activity is 198.16 U/mg.

What about the Activity [7] of the same molecule?
The Activity was 69.12 U/mg.

And the Activity [8]?
Its Activity is 59.91 U/mg.

And the Activity [9]?
The Activity was 87.1 U/mg.

Which Activity (HepG2) does the source give for `COc1cc([C@H]2Oc3cc([C@H]4Oc5cc(O)cc(O)c5C(=O)[C@@H]4O)ccc3O[C@@H]2CO)ccc1O` [SILYBIN A] here?
Its Activity is 52.5%.

And the Activity (Hepatocyte [10])?
The Activity was 61.2%.

What about the IC50 (Hepatocyte [11]) of the same molecule?
The IC50 was 29.9 µM.

And the Activity (Hepatocyte [12])?
The Activity was 61.2%.

And the IC50 (Hepatocyte [13])?
Its IC50 is 38.8 µM.

What about the EC50 [14] of the same molecule?
Its EC50 is 75.7 µM.

What about the IC50 (Hepatocyte [15]) of the same molecule?
Its IC50 is 33.6 µM.

For `C[C@@H]1O[C@@H](O[C@H]2[C@H](OC(=O)[C@]34CCC(C)(C)C[C@H]3C3=CC[C@@H]5[C@@]6(C(=O)O)CC[C@H](O)[C@@](C)(C(=O)O)[C@@H]6CC[C@@]5(C)[C@]3(C)CC4)O[C@H](C)[C@H](O)[C@@H]2O)[C@H](O)[C@H](O)[C@H]1O[C@@H]1O[C@H](CO)[C@@H](O[C@@H]2OC[C@@H](O)[C@H](O)[C@H]2O)[C@H](O)[C@H]1O`, which Activity [4] is on record?
The Activity was 81.85 U/mg.

What about the Activity [5] of the same molecule?
The Activity was 193.68 U/mg.

What about the Activity [6] of the same molecule?
Its Activity is 196.16 U/mg.

What about the Activity [7] of the same molecule?
The Activity was 67.77 U/mg.

What about the Activity [8] of the same molecule?
Its Activity is 59.57 U/mg.

And the Activity [9]?
Its Activity is 85.63 U/mg.

For `CC1(C)CC[C@]2(C(=O)O)CC[C@]3(C)C(=CC[C@@H]4[C@@]5(C)CCC(OC(=O)/C=C/c6ccc(O)c(O)c6)C(C)(C)[C@@H]5CC[C@]43C)[C@@H]2C1` (some centres undefined), which Activity (Mus musculus [16]) is on record?
Its Activity is 3.53 mmol/L.

For `C[C@@H]1CC[C@]2(C(=O)O)CC[C@]3(C)C(=CC[C@@H]4[C@@]5(C)C[C@@H](O)[C@@H](O)C(C)(C)[C@@H]5CC[C@]43C)[C@@H]2[C@]1(C)O` [EUSCAPHIC ACID], which Activity (Huh-7) is on record?
Its Activity is 48.8%.

For `CC1(C)CC[C@]2(C(=O)O[C@@H]3O[C@H](CO)[C@@H](O)[C@H](O)[C@H]3O)CC[C@]3(C)C(=CC[C@@H]4[C@@]5(C)CC[C@H](O[C@@H]6O[C@H](C(=O)O)[C@@H](O)[C@H](O)[C@H]6O[C@@H]6OC[C@H](O)[C@H](O)[C@H]6O)C(C)(C)[C@@H]5CC[C@]43C)[C@@H]2C1`, which Activity (Hepatocyte [17]) is on record?
Its Activity is 28%.

With `CC1(C)CC[C@]2(C)CC[C@]3(C)C(=CC[C@@H]4[C@@]5(C)CC[C@H](O)C(C)(C)[C@@H]5CC[C@]43C)[C@@H]2C1` [beta-AMYRIN] as the molecule, how does the Activity (Mus musculus [18]) read?
The Activity was 17.3%.

And the Activity [19]?
Its Activity is 40%.

And the Activity [20]?
Its Activity is 49.4%.

And the Activity [21]?
Its Activity is 2.17.

From ChEMBL document CHEMBL5260832, “Hepatoprotective natural triterpenoids” (Eur J Med Chem, 2018)
